Laboratory results published in article PMC6213047, “Design of Antibacterial Agents: Alkyl Dihydroxybenzoates against Xanthomonas citri subsp. citri” (International Journal of Molecular Sciences, 2018).
Where two headings read alike, the source gives them in different places.

Columns and labels:
[1] = test system: X. citri subsp. citri strain 306 (IBSBF 1594); assay: MBC, REMA plates replicated to Petri dishes; type: cell-based, Xanthomonas citri subsp. citri; conditions: Xanthomonas citri
Protocol: The minimal bactericidal concentration (MBC) was determined by observing the bacterial growth in Petri dishes transferred from the REMA plates.
(§1) The antibacterial activity of alkyl dihydroxybenzoates and the determination of minimum inhibition concentration (MIC) were performed by the fluorimetric method Resazurin Microtiter Assay (REMA) with some modifications. An overnight culture of X. citri subsp. citri strain 306 (IBSBF 1594) was grown in 20 mL in Nitrogen Yeast Glycerol (NYG) at 29 °C in constant agitation of 180–200 rpm. After 12 h, the Xcc inoculum was dispersed in NYG medium and distributed into a 96 well microtiter plate to a final volume of 100 μL per well (10^5 CFU per well). Stock solutions of tested compounds at 10 mg mL^−1 were prepared in dimethyl sulfoxide (DMSO) and dispersed in NYG medium to obtain 1% DMSO and the final compound concentration range of 0.78–100 μg mL^−1. The negative control was constituted of 100 μL culture medium. In addition, the copper oxychloride was tested as a comparison to alkyl dihydroxybenzoates and kanamycin (20 μg mL^−1), which was used as a control antibiotic. The plate was subsequently incubated at 29 °C for 12 h, and 15 μg mL^−1 freshly prepared resazurin solution in water was added to each well, and the plate was incubated for 2 h. The fluorescence was determined on a Synergy H1 (BioTek, Winooski, VT, USA) microplate reader using the excitation and emission filters at wavelengths of 530 and 590 nm respectively. After the REMA assay, the minimum bactericidal concentration (CBM) assay was performed using a 96-pin stainless steel plate replicator, accurately transferring the wells from the REMA plate to Petri dishes Petri dishes were incubated in oven B.O.D. at 29 °C for 24 to 48 h. The experiments were performed in triplicate.

[2] = Partition coefficient log Po/w by HPLC (OECD 117); type: physicochemical; conditions: HPLC method, OECD 117, methanol:water 3:1
Protocol: The analyses were performed with the use of an isocratic flow in methanol: water (3:1) at 1.0 mL min^−1. We injected 20.0 μL and analyses were performed at 254 nm. We used as reference compounds thiourea, phenol, acetophenone, benzoic acid, benzene, toluene, biphenyl, fluoranthene and triphenylamine in order to construct the curve log K × log Po/w. The lipophilicity of alkyl dihydroxybenzoates was determined from their retention times and interpolation in linearity curve log K × log Po/w. We performed the analyses in duplicate.

[3] = test system: X. citri subsp. citri strain 306 (IBSBF 1594); assay: MIC by Resazurin Microtiter Assay (REMA); type: cell-based, Xanthomonas citri subsp. citri; conditions: Xanthomonas citri, 12 h
Protocol: The antibacterial potential of carboxylic acids and their esters were compared to copper oxychloride (a commercial active often used to combat citrus canker). Minimal inhibitory concentration (MIC) values were determined by REMA assay, which measures cellular respiratory activity.
as §1

[4] = Petri dishes from REMA plates, 29 °C, 24 to 48 h, read-out: MBC
[5] = REMA, NYG medium, 29 °C, read-out: MIC
[6] = REMA, NYG medium, 29 °C, read-out: MIC in μM

SMILES: CCOC(=O)c1cc(O)ccc1O [Compound 13]
- MBC [1, 4]: > 100 µg/mL
- chromatographic logP [2]: 2.4
- MIC [3, 5]: > 100 µg/mL
- MIC [3, 6]: > 549 µM

SMILES: O=C(OCCc1ccccc1)c1ccc(O)c(O)c1 [Compound 36]
- MBC [1, 4]: 100 µg/mL
- chromatographic logP [2]: 2.4
- MIC [3, 5]: < 100 µg/mL
- MIC [3, 6]: 345 µM

SMILES: CCCCCCCCOC(=O)c1ccc(O)c(O)c1 [Compound 29]
- MBC [1, 4]: 50 µg/mL
- chromatographic logP [2]: 4.9
- MIC [3, 5]: 31.2 µg/mL
- MIC [3, 6]: 117 µM

SMILES: CCCCCCCCCCCCOC(=O)c1ccc(O)cc1O [Compound 8, dodecyl 2,4 dihydroxybenzoate]
- MBC [1, 4]: > 100 µg/mL
- chromatographic logP [2]: 7
- MIC [3, 5]: > 100 µg/mL
- MIC [3, 6]: > 310 µM

SMILES: CCOC(=O)c1ccc(O)c(O)c1 [Compound 25]
- MBC [1, 4]: > 100 µg/mL
- chromatographic logP [2]: 1.7
- MIC [3, 5]: > 100 µg/mL
- MIC [3, 6]: > 549 µM

SMILES: O=C(O)c1ccc(O)cc1O [2,4 DHB acid, 2,4 dihydroxybenzoic acid, reference compound]
- MBC [1, 4]: > 100 µg/mL
- chromatographic logP [2]: 2.6
- MIC [3, 5]: > 100 µg/mL
- MIC [3, 6]: > 648 µM

SMILES: CCCCCCOC(=O)c1ccc(O)c(O)c1 [Compound 27]
- MBC [1, 4]: 50 µg/mL
- chromatographic logP [2]: 3.7
- MIC [3, 5]: 44.4 µg/mL
- MIC [3, 6]: 186 µM

SMILES: CC(C)OC(=O)c1cc(O)ccc1O [Compound 21]
- MBC [1, 4]: > 100 µg/mL
- chromatographic logP [2]: 2.2
- MIC [3, 5]: > 100 µg/mL
- MIC [3, 6]: > 510 µM

SMILES: O=C(OC1CCCCC1)c1cc(O)ccc1O [Compound 23]
- MBC [1, 4]: 100 µg/mL
- chromatographic logP [2]: 3.5
- MIC [3, 5]: 90.4 µg/mL
- MIC [3, 6]: 382 µM

SMILES: CCCCOC(=O)c1ccc(O)c(O)c1 [Compound 26]
- MBC [1, 4]: > 100 µg/mL
- chromatographic logP [2]: 2.6
- MIC [3, 5]: > 100 µg/mL
- MIC [3, 6]: > 475 µM

SMILES: CCOC(=O)c1ccc(O)cc1O [Compound 1]
- MBC [1, 4]: > 100 µg/mL
- chromatographic logP [2]: 2.8
- MIC [3, 5]: > 100 µg/mL
- MIC [3, 6]: > 548 µM

SMILES: CCCCCCCCCCCCOC(=O)c1ccc(O)c(O)c1 [Compound 32]
- MBC [1, 4]: > 100 µg/mL
- chromatographic logP [2]: 6.9
- MIC [3, 5]: > 100 µg/mL
- MIC [3, 6]: > 310 µM

SMILES: CCCCCCCCCOC(=O)c1cc(O)ccc1O [Compound 18]
- MBC [1, 4]: > 100 µg/mL
- chromatographic logP [2]: 5.7
- MIC [3, 5]: > 100 µg/mL
- MIC [3, 6]: > 357 µM

SMILES: CC(C)OC(=O)c1ccc(O)c(O)c1 [Compound 33]
- MBC [1, 4]: > 100 µg/mL
- chromatographic logP [2]: 1.4
- MIC [3, 5]: > 100 µg/mL
- MIC [3, 6]: > 510 µM

SMILES: CCCCCCCCCCOC(=O)c1ccc(O)c(O)c1 [Compound 31]
- MBC [1]: 100 µg/mL
- MIC ([3]; REMA, NYG medium, 29 °C): > 100 µg/mL
- MIC ([3]; read-out: MIC in μM, REMA, NYG medium, 29 °C, 12 h): > 340 µM

SMILES: CCCCOC(=O)c1ccc(O)cc1O [Compound 2]
- MBC [1, 4]: 50 µg/mL
- chromatographic logP [2]: 3.9
- MIC [3, 6]: 189 µM

SMILES: O=C(OC1CCCCC1)c1ccc(O)c(O)c1 [Compound 35]
- MBC [1, 4]: > 100 µg/mL
- chromatographic logP [2]: 2.7
- MIC [3, 5]: > 100 µg/mL
- MIC [3, 6]: > 423 µM

SMILES: O=C(OC1CCCC1)c1cc(O)ccc1O [Compound 22]
- MBC [1, 4]: 100 µg/mL
- chromatographic logP [2]: 3
- MIC [3, 5]: 83.5 µg/mL
- MIC [3, 6]: 375 µM

SMILES: CCCCCCCCCOC(=O)c1ccc(O)c(O)c1 [Compound 30]
- MBC [1, 4]: 50 µg/mL
- chromatographic logP [2]: 5.5
- MIC [3, 5]: 26.7 µg/mL
- MIC [3, 6]: 95 µM

SMILES: O=C(OC1CCCC1)c1ccc(O)cc1O [Compound 10]
- MBC [1, 4]: > 100 µg/mL
- chromatographic logP [2]: 2.2
- MIC [3, 5]: > 100 µg/mL
- MIC [3, 6]: > 450 µM

SMILES: O=C(OC1CCCC1)c1ccc(O)c(O)c1 [Compound 34]
- MBC [1, 4]: > 100 µg/mL
- chromatographic logP [2]: 2.2
- MIC [3, 5]: > 100 µg/mL
- MIC [3, 6]: > 450 µM

SMILES: O=C(O)c1ccc(O)c(O)c1 [3,4 DHB acid, 3,4 dihydroxybenzoic acid, reference compound]
- MBC [1, 4]: > 100 µg/mL
- chromatographic logP [2]: 0.8
- MIC [3, 5]: > 100 µg/mL
- MIC [3, 6]: > 648 µM

SMILES: CCCCOC(=O)c1cc(O)ccc1O [Compound 14]
- MBC [1, 4]: > 100 µg/mL
- chromatographic logP [2]: 3.4
- MIC [3, 5]: > 100 µg/mL
- MIC [3, 6]: > 475 µM

SMILES: CCCCCCOC(=O)c1ccc(O)cc1O [Compound 3]
- MBC [1, 4]: 50 µg/mL
- chromatographic logP [2]: 5
- MIC [3, 6]: 84 µM

SMILES: O=C(OC1CCCCC1)c1ccc(O)cc1O [Compound 11]
- MBC [1, 4]: 100 µg/mL
- chromatographic logP [2]: 4
- MIC [3, 6]: 171 µM

SMILES: CCCCCCCCOC(=O)c1cc(O)ccc1O [Compound 17]
- MBC [1, 4]: > 100 µg/mL
- chromatographic logP [2]: 5.2
- MIC [3, 5]: > 100 µg/mL
- MIC [3, 6]: > 375 µM

SMILES: CCCCCCCCCCOC(=O)c1cc(O)ccc1O [Compound 19]
- MBC [1, 4]: > 100 µg/mL
- chromatographic logP [2]: 6.3
- MIC [3, 5]: > 100 µg/mL
- MIC [3, 6]: > 340 µM

SMILES: CCCCCCOC(=O)c1cc(O)ccc1O [Compound 15]
- MBC [1, 4]: 50 µg/mL
- chromatographic logP [2]: 4.5
- MIC [3, 6]: 140 µM

SMILES: O=C(O)c1cc(O)ccc1O [2,5 DHB acid, 2,5 dihydroxybenzoic acid, reference compound]
- MBC [1, 4]: > 100 µg/mL
- chromatographic logP [2]: 2.8
- MIC [3, 5]: > 100 µg/mL
- MIC [3, 6]: > 648 µM

SMILES: O=C(OCCc1ccccc1)c1cc(O)ccc1O [Compound 24]
- MBC [1, 4]: 100 µg/mL
- chromatographic logP [2]: 3.1
- MIC [3, 5]: 59.7 µg/mL
- MIC [3, 6]: 231 µM

SMILES: CCCCCCCCCOC(=O)c1ccc(O)cc1O [Compound 6]
- MBC [1, 4]: > 100 µg/mL
- chromatographic logP [2]: 6.2
- MIC [3, 5]: > 100 µg/mL
- MIC [3, 6]: > 356 µM

SMILES: CCCCCCCCCCOC(=O)c1ccc(O)cc1O [Compound 7]
- MBC [1, 4]: > 100 µg/mL
- chromatographic logP [2]: 6.9
- MIC [3, 5]: > 100 µg/mL
- MIC [3, 6]: > 340 µM

SMILES: CCCCCCCCCCCCOC(=O)c1cc(O)ccc1O [Compound 20]
- MBC [1, 4]: > 100 µg/mL
- chromatographic logP [2]: 6.8
- MIC [3, 5]: > 100 µg/mL
- MIC [3, 6]: > 310 µM

SMILES: CCCCCCCCOC(=O)c1ccc(O)cc1O [Compound 5]
- MBC [1, 4]: > 100 µg/mL
- chromatographic logP [2]: 6.1
- MIC [3, 5]: > 100 µg/mL
- MIC [3, 6]: > 375 µM

SMILES: CC(C)OC(=O)c1ccc(O)cc1O [Compound 9]
- MBC [1, 4]: > 100 µg/mL
- chromatographic logP [2]: 2.6
- MIC [3, 5]: > 100 µg/mL
- MIC [3, 6]: > 510 µM
